The target of data set [1] is γ-aminobutyric acid aminotransferase (GABA-AT) (Sus scrofa, UniProt P80147). The conditions noted are these: cited from earlier work.
The target of data set [2] is neuronal GABA transporter (Mus musculus, UniProt P31648). The conditions noted are these: Ludwig et al 1999; cited from earlier work.
Data set [3] deals with patient diagnosed with Tourettes's Disorder (TD). Briefly: Clinical observations: single patient with Tourette's Disorder treated with vigabatrin. The class given is in vivo, human. The text has this:
The following instruments will be used to assess diagnosis and symptom severity at baseline: • a) SCID-CT. A clinician administered, semi-structured diagnostic interview specifically developed for use in clinical trials with adults • b) Yale Global Tic Severity Scale (Y-GTSS) (Leckman et al, 1989). The primary outcome measure for tic assessment is this investigator administered Global Severity score (sum of Total Tic score and TD Impairment score) on the Y-GTSS. It includes measures of tic frequency and severity and is widely used in drug efficacy trials involving TD. • c) Yale-Brown Obsessive Compulsive Scale (Y-BOCS) (Goodman et al, 1989). The Y-BOCS is a primary outcome measure of OCD symptoms and is rated by a study investigator. • d) Clinical Global Impression for Tics (Tics-CGI) (Leckman et al, 1988), for ADHD (ADHD-CGI), and for OCD (OCD-CGI) (Guy et al, 1976). Rated by the investigator. Global Improvement (1=very much improved, to 7=very much worse) scales. At intake, only the severity can be rated. In subsequent assessments, both severity and improvement will be rated. A CGI improvement of 1 (very much) or 2 (much) improved is considered to be an acceptable response to acute treatment as is a clinical severity rating of ≦3. • e) DSM-IV-TR Global Assessment of Functioning Scale (GAF) (APA DSM-IV-TR, 2000). The investigator-rated GAF ranges from 1-100, with scores over 70 indicating normal adjustment, and below 60, clinically significant impairment. • f) Hamilton Depression Scale. A clinician-rated scale used as a screening and diagnostic tool and a measure of severity of […] in adults, which has been widely used in clinical trials of young adults with MDD. • g) Hamilton Anxiety Scale. A clinician-rated scale used as a screening and diagnostic tool and a measure of severity of […] in adults, which has been widely used in clinical trials of young adults with MDD. • h) Conners Adult ADHD Rating Scale (CAARS:SL) Systematic self-report of ADHD symptoms in adults. • i) Adverse Events Form (SMURF) is completed at every visit to document all adverse events that occur during the study. • j) Demographics: Demographics and family history information are collected systematically during the Screening/Baseline Phase. • k) Vital signs, Weight and Height (pulse, blood pressure, weight, and height) will be assessed at every visit. • l) Abnormal Involuntary Movement Scale (AIMS) An investigator rated scale of abnormal involuntary movements including tardive dyskinesia. • m) Opthalmological evaluation including visual fields testing Visit 2 (Treatment Week 0):
A single patient diagnosed with Tourettes's Disorder (TD) was treated with vigabatrin for a period of about ten months. Subject is a person with a longstanding history of severe TD. Their course was characterized by typical attenuation of symptoms in late adolescence/early adulthood with an unusual, but not rare, acceleration of symptoms to lifetime peak severity in the last several years. This exacerbation occurred in temporal association with several significant life stressors. Marking the severity of their TD course was a history of fractured rib secondary to a truncal tic, inability to take public transportation, and inability to find steady work in their profession. […] They were on tetrabenazine at the time of referral to the study, but their response to this medication was limited by depressed mood symptoms and moderate fatigue.
Baseline Yale Global Tic Severity Score (YGTSS) score indicated a total motor score of 22, and a total vocal score of 17, for a total tic score (TTS) of 39 and a tic-related impairment score of 40; global severity was 79. Global Assessment of Functioning (GAF) score at baseline was 50.

Data set [4] relates to brain GABA levels. Conditions: human, single dose; cited from earlier work.

“Also recorded” adds a separate entry of the source. Read-outs that look alike come from different tables or passages of the source.

Chain of γ-aminobutyric acid aminotransferase (GABA-AT) (P80147 29-500): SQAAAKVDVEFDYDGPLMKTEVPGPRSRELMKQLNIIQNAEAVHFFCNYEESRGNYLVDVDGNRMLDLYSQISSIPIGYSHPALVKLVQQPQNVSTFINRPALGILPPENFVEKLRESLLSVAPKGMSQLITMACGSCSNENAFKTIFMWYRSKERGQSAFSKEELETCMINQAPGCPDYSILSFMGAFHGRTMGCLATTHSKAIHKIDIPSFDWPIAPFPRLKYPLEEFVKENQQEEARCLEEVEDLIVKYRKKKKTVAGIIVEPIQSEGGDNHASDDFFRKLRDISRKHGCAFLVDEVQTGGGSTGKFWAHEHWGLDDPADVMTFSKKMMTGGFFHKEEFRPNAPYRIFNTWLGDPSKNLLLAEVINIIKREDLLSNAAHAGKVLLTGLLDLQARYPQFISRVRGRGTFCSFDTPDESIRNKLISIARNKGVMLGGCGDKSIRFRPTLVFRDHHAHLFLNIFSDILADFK

In the case of `C=C1C[C@H](C(=O)O)C[C@@H]1N` [Compound 2, (1S,3S)-3-amino-4-methylenyl-1-cyclopentanoic acid], the results for the “GABA-AT inactivation” value in data set [1] (2-mercaptoethanol added to the incubation mixture) and in data set [1] (without 2-mercaptoethanol) were “no inactivation occurred” and “inactivation of GABA-AT was observed”, respectively.
On to `N[C@@H]1C=C[C@H](C(=O)O)C1` [compound 1, (1R,4S)-4-amino-cyclopent-2-ene-1-carboxylic acid], for which, in data set [1], the “specificity constant as GABA-AT substrate relative to GABA” value is given as “almost five times greater than that of GABA”.
On to `C=CC(N)CCC(=O)O` (stereo not drawn) [vigabatrin, γ-vinyl GABA], for which the “inhibition of GABA uptake” value in data set [2] is “inhibits GABA uptake”. The “tic severity, overall clinical outcome” value in data set [3] is “clinically significant and meaningful improvement in their tic severity”. Further, the “YGTSS total tic score (TTS)” value in data set [3] (GVG 2 grams, week 2, baseline TTS 39) stood at 31; in data set [3] (GVG 3 grams, week 3, baseline TTS 39), 27; in data set [3] (GVG 3 grams, week 4, baseline TTS 39), 24; in data set [3] (GVG 3 grams, week 5, baseline TTS 39), 21; in data set [3] (GVG 3 grams, week 7, baseline TTS 39), 24; in data set [3] (week 1, dose figure not printed ('gram'), baseline TTS 39) it was 29. Also, the “adverse effect” value in data set [3] (GVG up to 3 grams, listed as GVG) was “minimal: tiredness and fatigue starting at 2 grams, which gradually attenuated; also recorded: mild and non-limiting adverse effect of fatigue”. The “eye exam” value in data set [3] (at 7 weeks, overall, listed as GVG) is “normal, and showed no change from baseline; also recorded: unchanged and within normal limits”. Moreover, the “Global Assessment of Functioning (GAF) score” value in data set [3] (week 7, baseline GAF 50) is recorded as 65. Besides, the “brain GABA levels after administration” value in data set [4] was “remain substantially elevated for several days”.

The record behind these values is patent US9254274B2, “Method of treating Tourette'S disorder with GABA-aminotransferase inactivators” (CATALYST PHARMACEUTICAL PARTNERS, priority 2012, dated 2016).
